In the supplement of paper PMC10307832:

Assays:
Experiment in all cases: relative viability (nuclei count vs DMSO), 5 days (fraction); higher = more cells survive
201T = system: 201T
Procedure, shortened: (§1)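 Lung cancer cell lines in 1536-well plates got either a single drug or a fixed anchor-drug dose together with five library-drug doses (not always all listed) in √10 steps, by pin tool, on the day after seeding. Nuclei were counted after 5 days, and relative viability is the treated-to-vehicle ratio of nuclei counts. Values are medians of duplicate plates.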

COR-L 105 = system: COR-L 105
Procedure, shortened: as §1

ChaGo-K-1 = system: ChaGo-K-1
Procedure, shortened: as §1

EPLC-272H = system: EPLC-272H
Procedure, shortened: as §1

H3255 = system: H3255
Procedure, shortened: as §1

HCC-78 = system: HCC-78
Procedure, shortened: as §1

HCC-827 = system: HCC-827
Procedure, shortened: as §1

LC-2-ad = system: LC-2-ad
Procedure, shortened: as §1

LCLC-97TM1 = system: LCLC-97TM1
Procedure, shortened: as §1

NCI-H1666 = system: NCI-H1666
Procedure, shortened: as §1

NCI-H1915 = system: NCI-H1915
Procedure, shortened: as §1

NCI-H2087 = system: NCI-H2087
Procedure, shortened: as §1

NCI-H2126 = system: NCI-H2126
Procedure, shortened: as §1

NCI-H2347 = system: NCI-H2347
Procedure, shortened: as §1

NCI-H23 = system: NCI-H23
Procedure, shortened: as §1

NCI-H2405 = system: NCI-H2405
Procedure, shortened: as §1

NCI-H322M = system: NCI-H322M
Procedure, shortened: as §1

NCI-H520 = system: NCI-H520
Procedure, shortened: as §1

NCI-H647 = system: NCI-H647
Procedure, shortened: as §1

NCI-H650 = system: NCI-H650
Procedure, shortened: as §1

NCI-H661 = system: NCI-H661
Procedure, shortened: as §1

PC-14 = system: PC-14
Procedure, shortened: as §1

RERF-LC-KJ = system: RERF-LC-KJ
Procedure, shortened: as §1

C=C1C(=O)O[C@@H](CCCCCCCC)[C@@H]1C(=O)O [C-75] + N=C(N)NC(=N)NCCc1ccccc1 [Phenformin] (partner 250 µM)
relative viability (201T; first compound 0.08 µM): 0.42 | relative viability (201T; first compound 0.253 µM): 0.484 | relative viability (201T; first compound 0.8 µM): 0.425 | relative viability (201T; first compound 2.53 µM): 0.43 | relative viability (201T; first compound 8 µM): 0.459 | relative viability (COR-L 105; first compound 0.08 µM): 0.507 | relative viability (COR-L 105; first compound 0.253 µM): 0.485 | relative viability (COR-L 105; first compound 0.8 µM): 0.547 | relative viability (COR-L 105; first compound 2.53 µM): 0.436 | relative viability (COR-L 105; first compound 8 µM): 0.436 | relative viability (ChaGo-K-1; first compound 0.08 µM): 0.461 | relative viability (ChaGo-K-1; first compound 0.253 µM): 0.538 | relative viability (ChaGo-K-1; first compound 0.8 µM): 0.453 | relative viability (ChaGo-K-1; first compound 2.53 µM): 0.414 | relative viability (ChaGo-K-1; first compound 8 µM): 0.494 | relative viability (EPLC-272H; first compound 0.08 µM): 0.33 | relative viability (EPLC-272H; first compound 0.253 µM): 0.281 | relative viability (EPLC-272H; first compound 0.8 µM): 0.276 | relative viability (EPLC-272H; first compound 2.53 µM): 0.28 | relative viability (EPLC-272H; first compound 8 µM): 0.271 | relative viability (H3255; first compound 0.08 µM): 0.345 | relative viability (H3255; first compound 0.253 µM): 0.352 | relative viability (H3255; first compound 0.8 µM): 0.392 | relative viability (H3255; first compound 2.53 µM): 0.337 | relative viability (H3255; first compound 8 µM): 0.331 | relative viability (HCC-78; first compound 0.08 µM): 0.844 | relative viability (HCC-78; first compound 0.253 µM): 0.849 | relative viability (HCC-78; first compound 0.8 µM): 0.544 | relative viability (HCC-78; first compound 2.53 µM): 0.595 | relative viability (HCC-78; first compound 8 µM): 0.625 | relative viability (HCC-827; first compound 0.08 µM): 0.428 | relative viability (HCC-827; first compound 0.253 µM): 0.391 | relative viability (HCC-827; first compound 0.8 µM): 0.38 | relative viability (HCC-827; first compound 2.53 µM): 0.36 | relative viability (HCC-827; first compound 8 µM): 0.42 | relative viability (LC-2-ad; first compound 0.08 µM): 0.561 | relative viability (LC-2-ad; first compound 0.253 µM): 0.566 | relative viability (LC-2-ad; first compound 0.8 µM): 0.544 | relative viability (LC-2-ad; first compound 2.53 µM): 0.483 | relative viability (LC-2-ad; first compound 8 µM): 0.54 | relative viability (LCLC-97TM1; first compound 0.08 µM): 0.421 | relative viability (LCLC-97TM1; first compound 0.253 µM): 0.487 | relative viability (LCLC-97TM1; first compound 0.8 µM): 0.355 | relative viability (LCLC-97TM1; first compound 2.53 µM): 0.372 | relative viability (LCLC-97TM1; first compound 8 µM): 0.431 | relative viability (NCI-H1666; first compound 0.08 µM): 0.586 | relative viability (NCI-H1666; first compound 0.253 µM): 0.602 | relative viability (NCI-H1666; first compound 0.8 µM): 0.56 | relative viability (NCI-H1666; first compound 2.53 µM): 0.559 | relative viability (NCI-H1666; first compound 8 µM): 0.51 | relative viability (NCI-H1915; first compound 0.08 µM): 0.361 | relative viability (NCI-H1915; first compound 0.253 µM): 0.375 | relative viability (NCI-H1915; first compound 0.8 µM): 0.368 | relative viability (NCI-H1915; first compound 2.53 µM): 0.318 | relative viability (NCI-H1915; first compound 8 µM): 0.325 | relative viability (NCI-H2087; first compound 0.08 µM): 0.409 | relative viability (NCI-H2087; first compound 0.253 µM): 0.597 | relative viability (NCI-H2087; first compound 0.8 µM): 0.428 | relative viability (NCI-H2087; first compound 2.53 µM): 0.279 | relative viability (NCI-H2087; first compound 8 µM): 0.48 | relative viability (NCI-H2126; first compound 0.08 µM): 0.505 | relative viability (NCI-H2126; first compound 0.253 µM): 0.558 | relative viability (NCI-H2126; first compound 0.8 µM): 0.501 | relative viability (NCI-H2126; first compound 2.53 µM): 0.48 | relative viability (NCI-H2126; first compound 8 µM): 0.515 | relative viability (NCI-H2347; first compound 0.08 µM): 0.506 | relative viability (NCI-H2347; first compound 0.253 µM): 0.599 | relative viability (NCI-H2347; first compound 0.8 µM): 0.401 | relative viability (NCI-H2347; first compound 8 µM): 0.379 | relative viability (NCI-H23; first compound 0.08 µM): 0.775 | relative viability (NCI-H23; first compound 0.253 µM): 0.758 | relative viability (NCI-H23; first compound 0.8 µM): 0.773 | relative viability (NCI-H23; first compound 2.53 µM): 0.582 | relative viability (NCI-H23; first compound 8 µM): 0.643 | relative viability (NCI-H2405; first compound 0.08 µM): 0.387 | relative viability (NCI-H2405; first compound 0.253 µM): 0.331 | relative viability (NCI-H2405; first compound 0.8 µM): 0.405 | relative viability (NCI-H2405; first compound 2.53 µM): 0.368 | relative viability (NCI-H2405; first compound 8 µM): 0.45 | relative viability (NCI-H322M; first compound 0.08 µM): 0.749 | relative viability (NCI-H322M; first compound 0.253 µM): 0.886 | relative viability (NCI-H322M; first compound 0.8 µM): 0.781 | relative viability (NCI-H322M; first compound 2.53 µM): 0.718 | relative viability (NCI-H322M; first compound 8 µM): 0.789 | relative viability (NCI-H520; first compound 0.08 µM): 0.539 | relative viability (NCI-H520; first compound 0.253 µM): 0.747 | relative viability (NCI-H520; first compound 0.8 µM): 0.464 | relative viability (NCI-H520; first compound 2.53 µM): 0.389 | relative viability (NCI-H520; first compound 8 µM): 0.482 | relative viability (NCI-H647; first compound 0.08 µM): 0.52 | relative viability (NCI-H647; first compound 0.253 µM): 0.58 | relative viability (NCI-H647; first compound 0.8 µM): 0.417 | relative viability (NCI-H647; first compound 2.53 µM): 0.374 | relative viability (NCI-H647; first compound 8 µM): 0.382 | relative viability (NCI-H650; first compound 0.08 µM): 0.474 | relative viability (NCI-H650; first compound 0.253 µM): 0.409 | relative viability (NCI-H650; first compound 0.8 µM): 0.371 | relative viability (NCI-H650; first compound 2.53 µM): 0.4 | relative viability (NCI-H650; first compound 8 µM): 0.41 | relative viability (NCI-H661; first compound 0.08 µM): 0.313 | relative viability (NCI-H661; first compound 0.253 µM): 0.271 | relative viability (NCI-H661; first compound 0.8 µM): 0.296 | relative viability (NCI-H661; first compound 2.53 µM): 0.237 | relative viability (NCI-H661; first compound 8 µM): 0.288 | relative viability (PC-14; first compound 0.08 µM): 0.469 | relative viability (PC-14; first compound 0.253 µM): 0.516 | relative viability (PC-14; first compound 0.8 µM): 0.479 | relative viability (PC-14; first compound 2.53 µM): 0.549 | relative viability (PC-14; first compound 8 µM): 0.526 | relative viability (RERF-LC-KJ; first compound 0.08 µM): 0.427 | relative viability (RERF-LC-KJ; first compound 0.253 µM): 0.452 | relative viability (RERF-LC-KJ; first compound 0.8 µM): 0.398 | relative viability (RERF-LC-KJ; first compound 2.53 µM): 0.469 | relative viability (RERF-LC-KJ; first compound 8 µM): 0.405
